pIC50: −log10 of the molar value.

The results in this text go back to patent US11242312B2, “Dipeptidyl ketoamide meta-methoxyphenyl derivatives and uses thereof” (LANDSTEINER GENMED, S.L., priority 2018, dated 2022).

Chain of calpain 1 (P07384 whole entry): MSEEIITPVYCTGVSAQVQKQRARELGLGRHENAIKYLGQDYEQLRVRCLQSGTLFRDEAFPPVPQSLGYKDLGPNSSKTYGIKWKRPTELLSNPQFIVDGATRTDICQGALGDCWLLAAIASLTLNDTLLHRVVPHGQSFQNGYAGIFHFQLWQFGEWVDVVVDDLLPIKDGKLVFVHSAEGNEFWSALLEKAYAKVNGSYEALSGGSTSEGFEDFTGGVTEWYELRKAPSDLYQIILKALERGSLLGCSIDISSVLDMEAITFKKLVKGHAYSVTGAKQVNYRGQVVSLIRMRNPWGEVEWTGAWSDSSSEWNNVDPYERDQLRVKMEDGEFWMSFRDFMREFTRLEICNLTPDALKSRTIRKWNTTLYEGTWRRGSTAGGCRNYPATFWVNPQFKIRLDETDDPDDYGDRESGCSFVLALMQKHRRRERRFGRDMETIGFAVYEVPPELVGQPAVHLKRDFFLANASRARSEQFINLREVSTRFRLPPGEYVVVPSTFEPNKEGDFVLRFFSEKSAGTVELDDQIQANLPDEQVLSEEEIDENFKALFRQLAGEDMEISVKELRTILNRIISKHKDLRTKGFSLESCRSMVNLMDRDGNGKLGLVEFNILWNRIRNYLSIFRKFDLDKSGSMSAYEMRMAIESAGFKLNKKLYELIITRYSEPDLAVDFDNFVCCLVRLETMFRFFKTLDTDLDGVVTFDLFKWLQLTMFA
Chain of calpain 1 (P04632 whole entry partner): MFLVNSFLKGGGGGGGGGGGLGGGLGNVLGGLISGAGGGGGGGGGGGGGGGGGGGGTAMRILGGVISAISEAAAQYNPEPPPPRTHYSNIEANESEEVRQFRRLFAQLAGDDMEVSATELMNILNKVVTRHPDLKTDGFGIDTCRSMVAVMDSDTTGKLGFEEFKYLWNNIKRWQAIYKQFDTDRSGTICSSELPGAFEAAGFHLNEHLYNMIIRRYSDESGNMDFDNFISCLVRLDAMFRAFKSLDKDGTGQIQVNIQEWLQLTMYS

The experiment concerns the target calpain 1 (Homo sapiens (Human), UniProt P07384). The experiment is described as follows: Assay for the determination of the capacity to inhibit calpain 1 (Calpain-Glo Protease kit). Type of experiment: biochemical. Particulars: Calpain-Glo luminescence; 16 ng/mL calpain 1; at least 6 concentrations; read-out: Calpain 1 inhibitory activity IC50. The protocol: Assay for the Determination of the Capacity to Inhibit Calpain 1
Activity of Calpain 1 was measured by using Calpain-Glo Protease kit from Promega. Assays were run in 384-well black plates with clear bottom. 5 μl of compounds in a 10 mM HEPES and 1 mM EDTA aqueous solution were incubated with 15 μL of a solution of 16 ng/mL calpain 1 (Sigma Aldrich) for 2 minutes and then 20 μL of Calpain-Glo™ Reagent provided in the kit were added to each well. Luminiscence elicited by calpain 1-induced substrate lysis was measured in a Hamamatsu FDSS 7000 reader and data was calculated from the maximal luminescence peak. Calpain inhibition was calculated from the formula: % inhibition=[…]; wherein LT is the luminescence observed in the tested compound, LB is blank luminescence obtained from a well without calpain 1 and LC is the luminescence observed in control wells including calpain1 in the absence of inhibitor.
All compounds were tested using, at least, 6 concentrations to allow calculate the IC50 (concentration that inhibits the activity of calpain 1 by 50%).
Calpastatin and ALLN were included as control inhibitors in all the assays.
`COc1cccc(C(=O)N[C@@H](CC(C)C)C(=O)N[C@@H](Cc2ccccc2)C(=O)C(=O)NC2CC2)c1` [Example 1, N-((S)-1-(((S)-4-(cyclopropylamino)-3,4-dioxo-1-phenylbutan-2-yl)amino)-4-methyl-1-oxopentan-2-yl)-3-methoxybenzamide]: the pIC50 is 10.52.
On to `CONC(=O)C(=O)C(Cc1ccccc1)NC(=O)[C@H](CC1CC1)NC(=O)c1cccc(OC)c1` (stereo partly drawn) [Example 4, N-((S)-3-cyclopropyl-1-((4-(methoxyamino)-3,4-dioxo-1-phenylbutan-2-yl)amino)-1-oxopropan-2-yl)-3-methoxybenzamide], for which the pIC50 is 8.15.
Under `COc1cccc(C(=O)N[C@@H](CC2CC2)C(=O)NC(Cc2ccccc2)C(=O)C(=O)NC2CC2)c1` (stereo partly drawn) [Example 3, N-((S)-3-cyclopropyl-1-((4-(cyclopropylamino)-3,4-dioxo-1-phenylbutan-2-yl)amino)-1-oxopropan-2-yl)-3-methoxybenzamide] stands 11.10; under `COc1cccc(C(=O)N[C@H](C(=O)NC(Cc2ccccc2)C(=O)C(=O)NC2CC2)C(C)C)c1` (stereo partly drawn) [Example 2, N-((S)-1-((4-(cyclopropylamino)-3,4-dioxo-1-phenylbutan-2-yl)amino)-3-methyl-1-oxobutan-2-yl)-3-methoxybenzamide], 8.66; under `COc1ccccc1C(=O)N[C@@H](CC(C)C)C(=O)N[C@@H](Cc1ccccc1)C(=O)C(=O)NC1CC1` [Comp. Example 6, N-((S)-1-(((S)-4-(cyclopropylamino)-3,4-dioxo-1-phenylbutan-2-yl)amino)-4-methyl-1-oxopentan-2-yl)-2-methoxybenzamide, reference compound], 6.96.
On to `COc1ccc(C(=O)N[C@@H](CC(C)C)C(=O)N[C@@H](Cc2ccccc2)C(=O)C(=O)NC2CC2)cc1` [Comp. Example 5, N-((S)-1-(((S)-4-(cyclopropylamino)-3,4-dioxo-1-phenylbutan-2-yl)amino)-4-methyl-1-oxopentan-2-yl)-4-methoxybenzamide, reference compound], for which the pIC50 was 6.59.
